Laboratory results taken from PMC5431781, “Structural studies of the periplasmic portion of the diguanylate cyclase CdgH from Vibrio cholerae” (Scientific Reports, 2017).
Where two headings read alike, the source gives them in different places.

What was measured:
[1] = molecular target: LAOBP; parameters: method as in PMID 1400387; settings: cited from earlier work
[2] = molecular target: PBPb-I domain of CdgH (residues 46–250) (Vibrio cholerae, UniProt Q9KT38); format: binding
Sequence of PBPb-I domain of CdgH (residues 46–250) (Q9KT38 46-250 limits assumed): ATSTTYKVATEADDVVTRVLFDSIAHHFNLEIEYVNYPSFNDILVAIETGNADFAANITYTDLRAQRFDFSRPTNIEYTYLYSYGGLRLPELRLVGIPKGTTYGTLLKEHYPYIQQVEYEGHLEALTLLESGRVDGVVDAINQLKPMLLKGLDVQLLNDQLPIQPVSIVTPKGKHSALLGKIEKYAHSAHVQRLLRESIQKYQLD

SMILES | ΔH ([2]; pH 8) [kcal/mol] | further results
N=C(N)NCCC[C@H](N)C(=O)O [L-Arg, L-arginine] | -12.87 ± 0.04 | Kd [1]: 14 nM
NC(=O)CC[C@H](N)C(=O)O [L-Gln, L-glutamine] | -3.57 ± 1.02 | –
N[C@@H](Cc1c[nH]cn1)C(=O)O [L-His, L-histidine] | -7.90 ± 0.28 | –
NCCCC[C@H](N)C(=O)O [L-Lys, L-lysine] | -6.02 ± 0.05 | binding affinity weaker than that with L-arginine [2]: about 18 fold
NCCC[C@H](N)C(=O)O [L-Orn, L-ornithine] | -3.61 ± 0.08 | Ka ([2]; pH 8): 240000 ± 33700 M⁻¹; Kd ([2]; pH 8, read-out: Kd): 4170 nM
N[C@@H](CC(=O)O)C(=O)O [L-aspartate] | – | Kd ([2]; pH 8): no measurable binding affinity
